Source: paper PMC6979384, “Characterization of the plant homeodomain (PHD) reader family for their histone tail interactions” (Epigenetics & Chromatin, 2020)

What was measured:
Assay in all cases: Histone peptide microarray
Assay type in all cases: binding, human
Details in all cases: total n = 4
BAZ2B = system: BAZ2B
Procedure, shortened: (§1)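 Steps: express and purify GST-tagged PHD reader; incubate 0.5 μM protein on a peptide microarray (293 histone peptides, single or combined PTMs) following an optimized protocol; average signal across 4 replicates.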

TRIM66 (PB) = system: TRIM66 (PB)
Procedure, shortened: as §1

PHF2 = system: PHF2
Procedure, shortened: as §1

PHF21A = system: PHF21A
Procedure, shortened: as §1

ING2 = system: ING2
Procedure, shortened: as §1

MLL5 = system: MLL5
Procedure, shortened: as §1

ING3 = system: ING3
Procedure, shortened: as §1

CHD4 (PPCC) = system: CHD4 (PPCC)
Procedure, shortened: as §1

SP140L = system: SP140L
Procedure, shortened: as §1

PHF23 = system: PHF23
Procedure, shortened: as §1

DPF2 (PPC2W2) = system: DPF2 (PPC2W2)
Procedure, shortened: as §1

PHF13 = system: PHF13
Procedure, shortened: as §1

KDM5A (1) = system: KDM5A (1)
Procedure, shortened: as §1

RAG2 = system: RAG2
Procedure, shortened: as §1

CHD5 (PPCC) = system: CHD5 (PPCC)
Procedure, shortened: as §1

AIRE (PP) = system: AIRE (PP)
Procedure, shortened: as §1

KDM4C (TTP) = system: KDM4C (TTP)
Procedure, shortened: as §1

TAF3 = system: TAF3
Procedure, shortened: as §1

KDM5A (3) = system: KDM5A (3)
Procedure, shortened: as §1

DIDO1 = system: DIDO1
Procedure, shortened: as §1

CHD5 (PCC) = system: CHD5 (PCC)
Procedure, shortened: as §1

ING4 = system: ING4
Procedure, shortened: as §1

MORC3 (CW) = system: MORC3 (CW)
Procedure, shortened: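 A peptide microarray holding 293 synthetic histone peptides with individual or combinatorial modifications was probed with each GST-PHD protein at 0.5 μM. Values represent mean intensity (±SD) from four replicates.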

KDM5B (3) = system: KDM5B (3)
Procedure, shortened: as §1

PHF8 = system: PHF8
Procedure, shortened: as §1

KDM7A = system: KDM7A
Procedure, shortened: as §1

BPTF (PB) = system: BPTF (PB)
Procedure, shortened: as §1

ING1 = system: ING1
Procedure, shortened: as §1

PHRF1 (RP) = system: PHRF1 (RP)
Procedure, shortened: as §1

KDM5B (1) = system: KDM5B (1)
Procedure, shortened: as §1

ING5 = system: ING5
Procedure, shortened: as §1

[1] = sheet "Array Heatmap", GST-tagged reader, histone peptide array

Substance: H3K18ac (1-32): H3 1-32
- Array Heatmap value (peptide array signal) (BAZ2B; BAZ2B, sheet "Array Heatmap", each array performed twice): 0.4901
- Array Heatmap value (peptide array signal) (TRIM66 (PB); TRIM66 (PB), sheet "Array Heatmap", each array performed twice): 0.5982
- Array Heatmap value (peptide array signal) (PHF2; PHF2, sheet "Array Heatmap", each array performed twice): 0.4084
- Array Heatmap value (peptide array signal) (PHF21A; PHF21A, sheet "Array Heatmap", each array performed twice): 0.434
- Array Heatmap value (peptide array signal) (ING2; ING2, sheet "Array Heatmap", each array performed twice): 0.6127
- Array Heatmap value (peptide array signal) (MLL5; MLL5, sheet "Array Heatmap", each array performed twice): 0.5655
- Array Heatmap value (peptide array signal) (ING3; ING3, sheet "Array Heatmap", each array performed twice): 0.4519
- Array Heatmap value (peptide array signal) (CHD4 (PPCC); CHD4 (PPCC), sheet "Array Heatmap", each array performed twice): 0.5307
- Array Heatmap value (peptide array signal) (SP140L; SP140L, sheet "Array Heatmap", each array performed twice): 0.3664
- Array Heatmap value (peptide array signal) (PHF23; PHF23, sheet "Array Heatmap", each array performed twice): 0.5317
- Array Heatmap value (peptide array signal) (DPF2 (PPC2W2); DPF2 (PPC2W2), sheet "Array Heatmap", each array performed twice): 0.7444
- Array Heatmap value (peptide array signal) (PHF13; PHF13, sheet "Array Heatmap", each array performed twice): 0.586
- Array Heatmap value (peptide array signal) (KDM5A (1); KDM5A (1), sheet "Array Heatmap", each array performed twice): 0.4813
- Array Heatmap value (peptide array signal) (RAG2; RAG2, sheet "Array Heatmap", each array performed twice): 0.2621
- Array Heatmap value (peptide array signal) (CHD5 (PPCC); CHD5 (PPCC), sheet "Array Heatmap", each array performed twice): 0.5424
- Array Heatmap value (peptide array signal) (AIRE (PP); AIRE (PP), sheet "Array Heatmap", each array performed twice): 0.5458
- Array Heatmap value (peptide array signal) (KDM4C (TTP); KDM4C (TTP), sheet "Array Heatmap", each array performed twice): 0.505
- Array Heatmap value (peptide array signal) (TAF3; TAF3, sheet "Array Heatmap", each array performed twice): 0.2816
- Array Heatmap value (peptide array signal) (KDM5A (3); KDM5A (3), sheet "Array Heatmap", each array performed twice): 0.5027
- Array Heatmap value (peptide array signal) (DIDO1; DIDO1, sheet "Array Heatmap", each array performed twice): 0.6775
- Array Heatmap value (peptide array signal) (CHD5 (PCC); CHD5 (PCC), sheet "Array Heatmap", each array performed twice): 0.7075
- Array Heatmap value (peptide array signal) (ING4; ING4, sheet "Array Heatmap", each array performed twice): 0.4589
- Array Heatmap value (peptide array signal) (MORC3 (CW); MORC3 (CW), sheet "Array Heatmap", each array performed twice): 0.4635
- Array Heatmap value (peptide array signal) (KDM5B (3); KDM5B (3), sheet "Array Heatmap", each array performed twice): 0.448
- Array Heatmap value (peptide array signal) (PHF8; PHF8, sheet "Array Heatmap", each array performed twice): 0.3597
- Array Heatmap value (peptide array signal) (KDM7A; KDM7A, sheet "Array Heatmap", each array performed twice): 0.3927
- Array Heatmap value (peptide array signal) (BPTF (PB); BPTF (PB), sheet "Array Heatmap", each array performed twice): 0.3434
- Array Heatmap value (peptide array signal) (ING1; ING1, sheet "Array Heatmap", each array performed twice): 0.5268
- Array Heatmap value (peptide array signal) (PHRF1 (RP); PHRF1 (RP), sheet "Array Heatmap", each array performed twice): 0.6228
- Array Heatmap value (peptide array signal) (KDM5B (1); KDM5B (1), sheet "Array Heatmap", each array performed twice): 0.7307
- Array Heatmap value (peptide array signal) (ING5; ING5, sheet "Array Heatmap", each array performed twice): 0.3576

Substance: H3K18ac: H3 1-20 [Peptide H3K18ac]
- Array Heatmap signal (histone peptide microarray) (BAZ2B; GST-tagged BAZ2B, sheet Array Heatmap, each array performed twice): 0.4617
- Array Heatmap signal (histone peptide microarray) (TRIM66 (PB); GST-tagged TRIM66 (PB = PHD + Bromodomain), sheet Array Heatmap, each array performed twice): 0.7719
- Array Heatmap signal (histone peptide microarray) (PHF2; GST-tagged PHF2, sheet Array Heatmap, each array performed twice): 0.5028
- Array Heatmap signal (histone peptide microarray) (PHF21A; GST-tagged PHF21A, sheet Array Heatmap, each array performed twice): 0.4738
- Array Heatmap signal (histone peptide microarray) (ING2; GST-tagged ING2, sheet Array Heatmap, each array performed twice): 0.5886
- Array Heatmap signal (histone peptide microarray) (MLL5; GST-tagged MLL5, sheet Array Heatmap, each array performed twice): 0.5221
- Array Heatmap signal (histone peptide microarray) (ING3; GST-tagged ING3, sheet Array Heatmap, each array performed twice): 0.4594
- Array Heatmap signal (histone peptide microarray) (CHD4 (PPCC); GST-tagged CHD4 (PPCC = Dual PHD + Dual Chromodomain), sheet Array Heatmap, each array performed twice): 0.5741
- Array Heatmap signal (histone peptide microarray) (SP140L; GST-tagged SP140L, sheet Array Heatmap, each array performed twice): 0.3771
- Array Heatmap signal (histone peptide microarray) (PHF23; GST-tagged PHF23, sheet Array Heatmap, each array performed twice): 0.5309
- Array Heatmap signal (histone peptide microarray) (DPF2 (PPC2W2); GST-tagged DPF2 (PPC2W2 = Dual PHD + C2W2-type Zn-finger), sheet Array Heatmap, each array performed twice): 0.8135
- Array Heatmap signal (histone peptide microarray) (PHF13; GST-tagged PHF13, sheet Array Heatmap, each array performed twice): 0.6049
- Array Heatmap signal (histone peptide microarray) (KDM5A (1); GST-tagged KDM5A (1), sheet Array Heatmap, each array performed twice): 0.495
- Array Heatmap signal (histone peptide microarray) (RAG2; GST-tagged RAG2, sheet Array Heatmap, each array performed twice): 0.2722
- Array Heatmap signal (histone peptide microarray) (CHD5 (PPCC); GST-tagged CHD5 (PPCC = Dual PHD + Dual Chromodomain), sheet Array Heatmap, each array performed twice): 0.5749
- Array Heatmap signal (histone peptide microarray) (AIRE (PP); GST-tagged AIRE (PP), sheet Array Heatmap, each array performed twice): 0.6319
- Array Heatmap signal (histone peptide microarray) (KDM4C (TTP); GST-tagged KDM4C (TTP = Tandem Tudor domain + PHD), sheet Array Heatmap, each array performed twice): 0.5068
- Array Heatmap signal (histone peptide microarray) (TAF3; GST-tagged TAF3, sheet Array Heatmap, each array performed twice): 0.3122
- Array Heatmap signal (histone peptide microarray) (KDM5A (3); GST-tagged KDM5A (3), sheet Array Heatmap, each array performed twice): 0.7024
- Array Heatmap signal (histone peptide microarray) (DIDO1; GST-tagged DIDO1, sheet Array Heatmap, each array performed twice): 0.6541
- Array Heatmap signal (histone peptide microarray) (CHD5 (PCC); GST-tagged CHD5 (PCC = PHD + Dual Chromodomain), sheet Array Heatmap, each array performed twice): 0.8176
- Array Heatmap signal (histone peptide microarray) (ING4; GST-tagged ING4, sheet Array Heatmap, each array performed twice): 0.4378
- Array Heatmap signal (histone peptide microarray) (MORC3 (CW); GST-tagged MORC3 (CW = CW-type Zn-finger), sheet Array Heatmap, each array performed twice): 0.6663
- Array Heatmap signal (histone peptide microarray) (KDM5B (3); GST-tagged KDM5B (3), sheet Array Heatmap, each array performed twice): 0.5801
- Array Heatmap signal (histone peptide microarray) (PHF8; GST-tagged PHF8, sheet Array Heatmap, each array performed twice): 0.3469
- Array Heatmap signal (histone peptide microarray) (KDM7A; GST-tagged KDM7A, sheet Array Heatmap, each array performed twice): 0.36
- Array Heatmap signal (histone peptide microarray) (BPTF (PB); GST-tagged BPTF (PB = PHD + Bromodomain), sheet Array Heatmap, each array performed twice): 0.3398
- Array Heatmap signal (histone peptide microarray) (ING1; GST-tagged ING1, sheet Array Heatmap, each array performed twice): 0.5131
- Array Heatmap signal (histone peptide microarray) (PHRF1 (RP); GST-tagged PHRF1 (RP), sheet Array Heatmap, each array performed twice): 0.9005
- Array Heatmap signal (histone peptide microarray) (KDM5B (1); GST-tagged KDM5B (1), sheet Array Heatmap, each array performed twice): 0.7147
- Array Heatmap signal (histone peptide microarray) (ING5; GST-tagged ING5, sheet Array Heatmap, each array performed twice): 0.3604

Substance: H3K18me2: H3 1-20 [Peptide H3K18me2]
- Array Heatmap signal, BAZ2B (BAZ2B; [1]): 0.4823
- Array Heatmap signal, TRIM66 (PB) (TRIM66 (PB); [1]): 0.5483
- Array Heatmap signal, PHF2 (PHF2; [1]): 0.4223
- Array Heatmap signal, PHF21A (PHF21A; [1]): 0.4944
- Array Heatmap signal, ING2 (ING2; [1]): 0.5955
- Array Heatmap signal, MLL5 (MLL5; [1]): 0.5113
- Array Heatmap signal, ING3 (ING3; [1]): 0.447
- Array Heatmap signal, CHD4 (PPCC) (CHD4 (PPCC); [1]): 0.5307
- Array Heatmap signal, SP140L (SP140L; [1]): 0.3547
- Array Heatmap signal, PHF23 (PHF23; [1]): 0.5164
- Array Heatmap signal, DPF2 (PPC2W2) (DPF2 (PPC2W2); [1]): 0.713
- Array Heatmap signal, PHF13 (PHF13; [1]): 0.5815
- Array Heatmap signal, KDM5A (1) (KDM5A (1); [1]): 0.4854
- Array Heatmap signal, RAG2 (RAG2; [1]): 0.2403
- Array Heatmap signal, CHD5 (PPCC) (CHD5 (PPCC); [1]): 0.548
- Array Heatmap signal, AIRE (PP) (AIRE (PP); [1]): 0.593
- Array Heatmap signal, KDM4C (TTP) (KDM4C (TTP); [1]): 0.5076
- Array Heatmap signal, TAF3 (TAF3; [1]): 0.2642
- Array Heatmap signal, KDM5A (3) (KDM5A (3); [1]): 0.5609
- Array Heatmap signal, DIDO1 (DIDO1; [1]): 0.6131
- Array Heatmap signal, CHD5 (PCC) (CHD5 (PCC); [1]): 0.7562
- Array Heatmap signal, ING4 (ING4; [1]): 0.4353
- Array Heatmap signal, MORC3 (CW) (MORC3 (CW); [1]): 0.432
- Array Heatmap signal, KDM5B (3) (KDM5B (3); [1]): 0.4828
- Array Heatmap signal, PHF8 (PHF8; [1]): 0.3314
- Array Heatmap signal, KDM7A (KDM7A; [1]): 0.3495
- Array Heatmap signal, BPTF (PB) (BPTF (PB); [1]): 0.334
- Array Heatmap signal, ING1 (ING1; [1]): 0.5097
- Array Heatmap signal, PHRF1 (RP) (PHRF1 (RP); [1]): 0.655
- Array Heatmap signal, KDM5B (1) (KDM5B (1); [1]): 0.731
- Array Heatmap signal, ING5 (ING5; [1]): 0.3565
